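Five concentrations, 48 hours, 96-well plates. GI50: concentration for 50% inhibition of growth. TGI denotes the concentration required for complete inhibition of growth.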
Experiments:
Assay in all cases: DTP human tumour cell line panel, 48 h
786-0 renal = tested on: 786-0 renal
A498 renal = tested on: A498 renal
A549 NSCLC = tested on: A549 NSCLC
ACHN renal = tested on: ACHN renal
BT-549 breast = tested on: BT-549 breast
CAKI-1 renal = tested on: CAKI-1 renal
CCRF-CEM leukemia = tested on: CCRF-CEM leukemia
COLO 205 colon = tested on: COLO 205 colon
DU-145 prostate = tested on: DU-145 prostate
HCC-2998 colon = tested on: HCC-2998 colon
HCT-116 colon = tested on: HCT-116 colon
HCT-15 colon = tested on: HCT-15 colon
HL-60(TB) leukemia = tested on: HL-60(TB) leukemia
HOP-62 NSCLC = tested on: HOP-62 NSCLC
HOP-92 NSCLC = tested on: HOP-92 NSCLC
HS 578T breast = tested on: HS 578T breast
HT29 colon = tested on: HT29 colon
IGROV1 ovarian = tested on: IGROV1 ovarian
K-562 leukemia = tested on: K-562 leukemia
KM12 colon = tested on: KM12 colon
LOX IMVI melanoma = tested on: LOX IMVI melanoma
M14 melanoma = tested on: M14 melanoma
MALME-3M melanoma = tested on: MALME-3M melanoma
MCF7 breast = tested on: MCF7 breast
MDA-MB-231 breast = tested on: MDA-MB-231 breast
MDA-MB-435 = tested on: MDA-MB-435
MOLT-4 leukemia = tested on: MOLT-4 leukemia
NCI-H226 lung = tested on: NCI-H226 lung
NCI-H23 lung = tested on: NCI-H23 lung
NCI-H460 lung = tested on: NCI-H460 lung
NCI-H522 lung = tested on: NCI-H522 lung
NCI/ADR-RES ovarian = tested on: NCI/ADR-RES ovarian
OVCAR-3 ovarian = tested on: OVCAR-3 ovarian
OVCAR-4 ovarian = tested on: OVCAR-4 ovarian
OVCAR-5 ovarian = tested on: OVCAR-5 ovarian
OVCAR-8 ovarian = tested on: OVCAR-8 ovarian
PC-3 prostate = tested on: PC-3 prostate
RPMI-8226 leukemia = tested on: RPMI-8226 leukemia
RXF 393 renal = tested on: RXF 393 renal
SF-268 CNS = tested on: SF-268 CNS
SF-295 CNS = tested on: SF-295 CNS
SF-539 CNS = tested on: SF-539 CNS
SK-MEL-2 melanoma = tested on: SK-MEL-2 melanoma
SK-MEL-28 melanoma = tested on: SK-MEL-28 melanoma
SK-MEL-5 melanoma = tested on: SK-MEL-5 melanoma
SK-OV-3 ovarian = tested on: SK-OV-3 ovarian
SN12C renal = tested on: SN12C renal
SNB-19 CNS = tested on: SNB-19 CNS
SNB-75 CNS = tested on: SNB-75 CNS
SR leukemia = tested on: SR leukemia
SW-620 colon = tested on: SW-620 colon
T-47D breast = tested on: T-47D breast
TK-10 renal = tested on: TK-10 renal
U251 CNS = tested on: U251 CNS
UACC-257 melanoma = tested on: UACC-257 melanoma
UACC-62 melanoma = tested on: UACC-62 melanoma
UO-31 renal = tested on: UO-31 renal

For `Nc1c(C(=O)c2cccc(-c3ccncc3)c2)cnn1-c1ccc(F)cc1`, which GI50 (786-0 renal) is on record?
Its GI50 is > 25 µM.

What about the TGI (786-0 renal) of the same compound?
The TGI was > 25 µM.

And the GI50 (A498 renal)?
Its GI50 is > 25 µM.

And the TGI (A498 renal)?
Its TGI is > 25 µM.

What about the GI50 (A549 NSCLC) of the same compound?
The GI50 was > 25 µM.

And the TGI (A549 NSCLC)?
Its TGI is > 25 µM.

What about the GI50 (ACHN renal) of the same compound?
Its GI50 is > 25 µM.

And the TGI (ACHN renal)?
Its TGI is > 25 µM.

And the GI50 (BT-549 breast)?
Its GI50 is > 25 µM.

What about the TGI (BT-549 breast) of the same compound?
The TGI was > 25 µM.

What about the GI50 (CAKI-1 renal) of the same compound?
Its GI50 is > 25 µM.

And the TGI (CAKI-1 renal)?
The TGI was > 25 µM.

What about the GI50 (CCRF-CEM leukemia) of the same compound?
Its GI50 is > 25 µM.

And the TGI (CCRF-CEM leukemia)?
The TGI was > 25 µM.

What about the GI50 (COLO 205 colon) of the same compound?
Its GI50 is > 25 µM.

And the TGI (COLO 205 colon)?
The TGI was > 25 µM.

What about the GI50 (DU-145 prostate) of the same compound?
Its GI50 is > 25 µM.

And the TGI (DU-145 prostate)?
Its TGI is > 25 µM.

And the GI50 (HCC-2998 colon)?
The GI50 was > 25 µM.

What about the TGI (HCC-2998 colon) of the same compound?
Its TGI is > 25 µM.

What about the GI50 (HCT-116 colon) of the same compound?
Its GI50 is > 25 µM.

What about the TGI (HCT-116 colon) of the same compound?
The TGI was > 25 µM.

What about the GI50 (HCT-15 colon) of the same compound?
The GI50 was > 25 µM.

And the TGI (HCT-15 colon)?
Its TGI is > 25 µM.

What about the GI50 (HL-60(TB) leukemia) of the same compound?
Its GI50 is > 5.67 µM.

What about the TGI (HL-60(TB) leukemia) of the same compound?
Its TGI is > 25 µM.

And the GI50 (HOP-62 NSCLC)?
The GI50 was > 23.3 µM.

What about the TGI (HOP-62 NSCLC) of the same compound?
The TGI was > 25 µM.

What about the GI50 (HOP-92 NSCLC) of the same compound?
Its GI50 is > 25 µM.

What about the TGI (HOP-92 NSCLC) of the same compound?
The TGI was > 25 µM.

And the GI50 (HS 578T breast)?
The GI50 was > 25 µM.

What about the TGI (HS 578T breast) of the same compound?
Its TGI is > 25 µM.

What about the GI50 (HT29 colon) of the same compound?
The GI50 was > 25 µM.

And the TGI (HT29 colon)?
Its TGI is > 25 µM.

And the GI50 (IGROV1 ovarian)?
Its GI50 is > 25 µM.

And the TGI (IGROV1 ovarian)?
The TGI was > 25 µM.

And the GI50 (K-562 leukemia)?
Its GI50 is > 25 µM.

What about the TGI (K-562 leukemia) of the same compound?
Its TGI is > 25 µM.

What about the GI50 (KM12 colon) of the same compound?
The GI50 was > 25 µM.

And the TGI (KM12 colon)?
Its TGI is > 25 µM.

What about the GI50 (LOX IMVI melanoma) of the same compound?
The GI50 was > 25 µM.

What about the TGI (LOX IMVI melanoma) of the same compound?
The TGI was > 25 µM.

What about the GI50 (M14 melanoma) of the same compound?
The GI50 was > 25 µM.

And the TGI (M14 melanoma)?
The TGI was > 25 µM.

What about the GI50 (MALME-3M melanoma) of the same compound?
Its GI50 is > 25 µM.

What about the TGI (MALME-3M melanoma) of the same compound?
Its TGI is > 25 µM.

And the GI50 (MCF7 breast)?
Its GI50 is > 25 µM.

What about the TGI (MCF7 breast) of the same compound?
The TGI was > 25 µM.

And the GI50 (MDA-MB-231 breast)?
The GI50 was > 25 µM.

What about the TGI (MDA-MB-231 breast) of the same compound?
The TGI was > 25 µM.

What about the GI50 (MDA-MB-435) of the same compound?
Its GI50 is > 25 µM.

What about the TGI (MDA-MB-435) of the same compound?
Its TGI is > 25 µM.

And the GI50 (MOLT-4 leukemia)?
The GI50 was > 25 µM.

And the TGI (MOLT-4 leukemia)?
Its TGI is > 25 µM.

What about the GI50 (NCI-H226 lung) of the same compound?
The GI50 was > 25 µM.

And the TGI (NCI-H226 lung)?
The TGI was > 25 µM.

And the GI50 (NCI-H23 lung)?
The GI50 was > 25 µM.

And the TGI (NCI-H23 lung)?
Its TGI is > 25 µM.

What about the GI50 (NCI-H460 lung) of the same compound?
The GI50 was > 25 µM.

What about the TGI (NCI-H460 lung) of the same compound?
The TGI was > 25 µM.

What about the GI50 (NCI-H522 lung) of the same compound?
The GI50 was 15.4 µM.

What about the TGI (NCI-H522 lung) of the same compound?
The TGI was > 25 µM.

And the GI50 (NCI/ADR-RES ovarian)?
Its GI50 is > 25 µM.

What about the TGI (NCI/ADR-RES ovarian) of the same compound?
The TGI was > 25 µM.

And the GI50 (OVCAR-3 ovarian)?
Its GI50 is > 25 µM.

What about the TGI (OVCAR-3 ovarian) of the same compound?
Its TGI is > 25 µM.

And the GI50 (OVCAR-4 ovarian)?
Its GI50 is > 25 µM.

And the TGI (OVCAR-4 ovarian)?
The TGI was > 25 µM.

And the GI50 (OVCAR-5 ovarian)?
Its GI50 is > 25 µM.

What about the TGI (OVCAR-5 ovarian) of the same compound?
Its TGI is > 25 µM.

And the GI50 (OVCAR-8 ovarian)?
The GI50 was > 25 µM.

And the TGI (OVCAR-8 ovarian)?
Its TGI is > 25 µM.

And the GI50 (PC-3 prostate)?
The GI50 was > 25 µM.

What about the TGI (PC-3 prostate) of the same compound?
The TGI was > 25 µM.

What about the GI50 (RPMI-8226 leukemia) of the same compound?
The GI50 was > 15.2 µM.

And the TGI (RPMI-8226 leukemia)?
The TGI was > 25 µM.

And the GI50 (RXF 393 renal)?
Its GI50 is > 25 µM.

What about the TGI (RXF 393 renal) of the same compound?
The TGI was > 25 µM.

What about the GI50 (SF-268 CNS) of the same compound?
The GI50 was > 25 µM.

What about the TGI (SF-268 CNS) of the same compound?
Its TGI is > 25 µM.

What about the GI50 (SF-295 CNS) of the same compound?
Its GI50 is > 25 µM.

What about the TGI (SF-295 CNS) of the same compound?
Its TGI is > 25 µM.

And the GI50 (SF-539 CNS)?
The GI50 was > 25 µM.

And the TGI (SF-539 CNS)?
Its TGI is > 25 µM.

What about the GI50 (SK-MEL-2 melanoma) of the same compound?
The GI50 was > 25 µM.

What about the TGI (SK-MEL-2 melanoma) of the same compound?
Its TGI is > 25 µM.

And the GI50 (SK-MEL-28 melanoma)?
The GI50 was > 25 µM.

What about the TGI (SK-MEL-28 melanoma) of the same compound?
Its TGI is > 25 µM.

What about the GI50 (SK-MEL-5 melanoma) of the same compound?
Its GI50 is 5.69 µM.

And the TGI (SK-MEL-5 melanoma)?
Its TGI is > 25 µM.

And the GI50 (SK-OV-3 ovarian)?
Its GI50 is > 25 µM.

And the TGI (SK-OV-3 ovarian)?
Its TGI is > 25 µM.

What about the GI50 (SN12C renal) of the same compound?
The GI50 was > 25 µM.

And the TGI (SN12C renal)?
The TGI was > 25 µM.

What about the GI50 (SNB-19 CNS) of the same compound?
The GI50 was > 25 µM.

And the TGI (SNB-19 CNS)?
The TGI was > 25 µM.

And the GI50 (SNB-75 CNS)?
The GI50 was > 25 µM.

What about the TGI (SNB-75 CNS) of the same compound?
The TGI was > 25 µM.

And the GI50 (SR leukemia)?
Its GI50 is > 25 µM.

And the TGI (SR leukemia)?
Its TGI is > 25 µM.

What about the GI50 (SW-620 colon) of the same compound?
Its GI50 is > 25 µM.

And the TGI (SW-620 colon)?
Its TGI is > 25 µM.

What about the GI50 (T-47D breast) of the same compound?
The GI50 was 9.94 µM.

And the TGI (T-47D breast)?
The TGI was > 25 µM.

What about the GI50 (TK-10 renal) of the same compound?
The GI50 was > 25 µM.

And the TGI (TK-10 renal)?
Its TGI is > 25 µM.

What about the GI50 (U251 CNS) of the same compound?
Its GI50 is > 25 µM.

What about the TGI (U251 CNS) of the same compound?
The TGI was > 25 µM.

What about the GI50 (UACC-257 melanoma) of the same compound?
The GI50 was > 25 µM.

And the TGI (UACC-257 melanoma)?
The TGI was > 25 µM.

And the GI50 (UACC-62 melanoma)?
Its GI50 is > 25 µM.

And the TGI (UACC-62 melanoma)?
The TGI was > 25 µM.

And the GI50 (UO-31 renal)?
Its GI50 is > 25 µM.

And the TGI (UO-31 renal)?
The TGI was > 25 µM.

From PubChem BioAssay (NCI)
